In patent publication US9820990B2, “Methods of treating disorders associated with protein aggregation” (University of Pittsburgh—Of the Commonwealth System of …, priority 2009, dated 2017):
Entries after “also recorded” stand apart in the source; their conditions may differ. Counter-ions that a name gives are not always drawn. Like-named read-outs stand apart in the source and are kept apart here.

Assays:
ATZ = settings: mouse model of AT deficiency; cited from earlier work
ATZ in HTO/Z cells = experiment: HTO/Z cells, Western blot analysis for AT; assay type: cell-based, human; settings: for ATZ levels in the cell line: HTO/Z mammalian cell line model of AT deficiency
Description: The cells were incubated for 48 hrs with fluphenazine in several different concentrations and then subjected to Western blot analysis for AT. […] The effect is evident at doses of 1-10 μM. […] This is different from CBZ which appears to affect autophagic as well as proteasomal degradation.

sGFP::ATZ [1] = experiment: Hit compound characterization: dose-response in the sGFP::ATZ HCS assay; assay type: in vivo, C. elegans; design: key to dose-dependent response: c: Compound demonstrated a dose-dependent response.; Compound failed to demonstrate a dose-dependent response; settings: for degradation of aggregated ATZ protein: Caenorhabditis elegans model system; for GFP+ inclusions in ATZ worms: at 10 μM; for effect on sGFP::ATZ accumulation: dose-response, 0-100 μM; for dose-dependent response: retest at 0-100 μM, 24 or 48 hours
Description: Imaging of animals using the ArrayScan VTI: Prior to imaging, worms were anesthetized by adding 30 μl of 0.02 M NaN3 in PBS to each well. Plates were resealed, inverted twice, and incubated for 5 minutes at room temperature. Images were acquired with the ArrayScan VTI HCS Reader fitted with a 2.5× objective and a 0.63× coupler using a 2-channel (TRITC and GFP) assay. Real-time analysis was performed using the SpotDetector BioApplication optimized to quantify fluorescent protein expression in C. elegans. Image acquisition and analysis of a 384-well plate was completed in <45 minutes. The total number of animals in the well was determined by counting the number of red heads (Pmyo-2mRFP) in the TRITC channel. Total spot area or total spot intensity was determined by quantifying the GFP-positive spots in the GFP channel. Total spot area or total spot intensity per animal was determined by dividing the values from the GFP channel by that from the TRITC channel.
Hit compound characterization: Compounds that were identified as potential hits were purchased (if available) and retested for verification. […] Compounds that produced a response in a dose-dependent manner were further tested for a time-dependent response. Compound dose-response curves were performed by dispensing 15 μl of a 4× stock solution into 384-well plates containing 15 μl of assay medium (see above). Thirty-five animals were sorted into each well bringing the volume to ˜60 μl. The final compound concentrations in each well varied from 0-100 μM. Assay plates were incubated in a 22° C. incubator for 24 or 48 hours. Each compound was tested in quadruplicate in at least 2 independent experiments.
Statistical evaluation: Statistical evaluation of data was performed using Prism® (Graphpad Software). The significance of actual and predicted data in FIGS. 12, 14 and 15 was determined using a linear regression analysis and comparing the slope and goodness-of-fit (r2) values. Statistical significance of the spot count, spot area and spot intensity values between N2 (wild-type) and various transgenic lines in FIG. 13 and dose-response in FIG. 17 was determined using an unpaired, one-tailed, Student's t-test.
Compound screen: To test the HCS protocol, a pilot drug screen was performed using the library of pharmacologically active compounds (LOPAC1280™ 1280 compounds). Tight gating parameters for total fluorescence were used to sort 35 young adult Pnhx2sGFP::ATZ animals into wells of 384-well plates containing […] of a LOPAC compound and 0.5% DMSO. Pnhx2sGFP::ATZ animals incubated with 0.5% DMSO served as untreated controls and were placed in the first-two and last-two columns of each plate. In a representative experiment, plate 1 of the LOPAC library was set-up for screening on day 1, and 3 other plates were set-up on the next day. After 24 incubation at 25° C., animals were immobilized by the addition of NaAz and placed in the ArrayScan VTI for automated imaging. To examine for systematic errors, the raw data (total spot area/animal) were depicted as a plate-well scatter plot (FIG. 17A). […] This difference reflects a wider sort-window used to collect animals on day 1 in comparison to that used on day 2. As the average values of the negative controls and that of the sample wells were similar, we combined the control and samples wells for normalization and to identify potential hits using the z-score (FIG. 17B). The ArrayScan VTI reads microtiter plates by rows, alternating from left-to-right, and then right-to-left. For some assays, we noted that the control fluorescence values would drift upwards slightly in rows towards the bottom of the plate. This drift appeared to correlate with an increase in chamber temperature during the scanning period and was minimized by cooling the chamber with a fan or shortening the read times by using 2.5× objective with a 0.6 coupler. Nonetheless, intra-plate variation was controlled for by presenting the data as a B-score (FIG. 17C). […]

mCherry::LGG-1 = experiment: Induction of autophagy in transgenic animals expressing Pnhx-2mCherry::lgg-1; assay type: in vivo, C. elegans; settings: compared with well-fed animals treated with DMSO (diffuse)
From the text: FIG. 18A-E. Induction of autophagy by hit compounds. Images of transgenic animals expressing Pnhx-2mCherry:lgg-1 treated with various compounds are shown. Images were acquired using a Nikon instruments TiEclipse widefield light microscope fitted with a 20× Plan Apochromat objective. Images were then deconvolved using Volocity (Perkin Elmer, v 5.3.2). Deconvolved z planes were then merged to a single plane. Well-fed animals treated with DMSO (A) show a diffuse mCherry expression throughout the intestine. […] Starved (E) animals are included as a positive control for autophagy. Scale bar, 50 μm.
Macroautophagy is a cellular process in which a double membrane envelops cytosolic components or organelles (autophagosome) and delivers this material to a lysosome (autophagolysosome) for degradation and recycling (reviewed in 79). LGG-1/LC3/Atg8 is a diffuse cytosolic protein that participates in autophagosome formation and becomes inserted into the autophagosome membrane (80). Upon autophagosome formation, LGG-1 fused to mCherry changes its cytoplasmic distribution pattern from diffuse (lower fluorescence intensity) to punctate (higher fluorescence intensity) (80). To determine whether the imaging system could follow this process, a strain expressing a Pnhx-2mCherry::lgg-1 transgene was examined after starvation, a potent inducer of intestinal autophagosome formation (81). In well-fed animals, the diffuse cytoplasmic fluorescence in the intestinal cells was well above that of the N2 background (FIGS. 13K-13L, 13O-13Q). To detect mCherry::LGG-1 puncta, the diffuse fluorescence intensity of the well-fed animals was used to calibrate a threshold from which the SpotDetector BioApplication could detect any high-intensity spots. Although basal autophagy in the well-fed animals yielded a few spots (FIG. 13O), the large number of distinct puncta in the starved animals (FIGS. 13M, 13N, 13O-Q) indicated a marked increase in autophagy that was detected best by a statistically significant increase in spot count or total spot intensity per animal (FIGS. 13O and 13Q, respectively). […]

sGFP::ATZ [2] = experiment: LOPAC library high-content primary screen for sGFP::ATZ accumulation in transgenic animals; assay type: in vivo, C. elegans; settings: for Rank-score: 24 h
C. elegans = settings: 0-100 mM, 4 hours, SYTOX Green uptake
Description: Animals were washed 5 times with M9 media and stained with 2 μM SYTOX™ Green (Invitrogen) for 5 minutes at room temperature (84). Approximately 50 animals/well were dispensed into an optical bottom black walled 96 well plate (Nunc Thermo Fisher Scientific, Rochester, N.Y., USA). Wells were imaged using the ArrayScan VTI over the entire area of the well in brightfield, red (TRITC) and green (GFP) channels at 50× magnification. The total number of animals and the number of dead bodies were determined by counting red and green spots, respectively. Data from SpotDetector algorithm were confirmed by manual counting of the live and dead animals. Percent dead=(the number of green objects detected/total number of animals)×100.
To determine whether the system could discriminate dead from live intestinal cells, we scanned and analyzed young adult animals exposed to different concentrations of NaAz in the presence SYTOX® Green.

Row | SMILES | ATZ levels in the cell line (ATZ in HTO/Z cells) | degradation of aggregated ATZ protein (sGFP::ATZ [1]) | GFP+ inclusions in ATZ worms (sGFP::ATZ [1]) | effect on sGFP::ATZ accumulation (sGFP::ATZ [1]) | dose-dependent response (sGFP::ATZ [1]) | mCherry::LGG-1 distribution pattern (autophagic activity) (mCherry::LGG-1) | also measured
1 | NC(=O)N1c2ccccc2C=Cc2ccccc21 [carbamazepine] |  |  |  |  |  |  | amount of ATZ accumulated in the liver (ATZ): decrease
2 | OCCN1CCN(CCCN2c3ccccc3Sc3ccc(C(F)(F)F)cc32)CC1 [fluphenazine dihydrochloride, 4-[3-[2-(Trifluoromethyl)phenothiazin-10-yl]propyl]-1-piperazineethanol] | effective in reducing ATZ levels | able to promote degradation of aggregated ATZ protein | almost complete elimination of the inclusions | dose-dependent decrease in sGFP::ATZ accumulation; also recorded: dose-dependant decrease in sGFP::ATZ accumulation; also recorded: dose-dependent effect; also recorded: decreased | fluphenazine dihydrochloride^c | markedly punctate distribution pattern indicative of increased autophagic activity | doses at which the decrease in insoluble ATZ is evident (ATZ in HTO/Z cells; HTO/Z cells, 48 hrs): 1 to 10 µM; levels of the control GAPDH (ATZ in HTO/Z cells; HTO/Z cells, 48 hrs): no significant change; soluble ATZ (ATZ in HTO/Z cells; HTO/Z cells, 48 hrs): increase; insoluble ATZ levels (ATZ in HTO/Z cells; HTO/Z cells, 48 hrs, several concentrations): dose-dependent decrease; ATZ levels in the cell line (ATZ in HTO/Z cells; listed as fluphenzine hydrochloride): decreased ATZ; Overall rank-order (sGFP::ATZ [2]): 23; Rank-score (sGFP::ATZ [2]; 50 µM): 81.0
3 | O=c1[nH]c2ccccc2n1C1CCN(CCCC(c2ccc(F)cc2)c2ccc(F)cc2)CC1 [pimozide, 1-[1-[4,4-bis(4-fluorophenyl)butyl]-4-piperidyl]-1,3-dihydrobenzoimidazol-2-one] | effective in reducing ATZ levels; also recorded: decreased ATZ | able to promote degradation of aggregated ATZ protein | almost complete elimination of the inclusions | dose-dependent decrease in sGFP::ATZ accumulation; also recorded: dose-dependant decrease in sGFP::ATZ accumulation; also recorded: dose-dependent effect; also recorded: decreased | pimozide^c | markedly punctate distribution pattern indicative of increased autophagic activity | Overall rank-order (sGFP::ATZ [2]; among compounds that decreased ATZ accumulation, based on relative rank-scores): 33; Rank-score (sGFP::ATZ [2]; average of compound rankings by ascending B-score from two independent screens, 50 μM, <110 decreased, >1225 increased sGFP::ATZ inclusions): 107.5
4 | [N-]=[N+]=[N-] [sodium azide] |  |  |  |  |  |  | number of dead animals (C. elegans): dose dependent increase
